Measured values from EP4389751A1, “HETEROCYCLIC COMPOUNDS AND USES THEREOF” (Kumquat Biosciences Inc., priority 2021, dated 2024).

Biological target: T1, KRAS protein (His-tagged GDP-loaded G12D 1-169) (Homo sapiens, UniProt P01116, G12D)
T1 construct: His-tagged GDP-loaded G12D 1-169
Experiment: Covalent modification of KRAS protein, intact-protein LC-MS
Format: binding
Conditions: 24hrs at room temperature, KRAS protein ~2 µM
Summary of the method: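 Percent covalent modification derives from deconvoluted intact-mass intensities of compound-adducted versus unmodified KRAS, measured by LC-ESI-MS. Before analysis, ~2 µM GDP-loaded His-KRAS 1-169 was exposed to compound for 24 h at room temperature and acidified with formic acid.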

For N#Cc1ccn(C(=O)N2C3CCC2CN(c2nc(OC[C@@]45CCCN4C[C@H](F)C5)nc4c(F)c(-c5ccc(F)c6sc(N)c(C#N)c56)c(Cl)cc24)C3)n1 [Compound A224, 1-(3-(7-(2-amino-3-cyano-7-fluorobenzo[b]thiophen-4-yl)-6-chloro-8-fluoro-2-(((2R,7aS)-2-fluorotetrahydro-1H-pyrrolizin-7a(5H)-yl)methoxy)quinazolin-4-yl)-3,8-diazabicyclo[3.2. 1]octane-8-carbonyl)-1H-pyrazole-3-carbonitrile], the “% G12D Modification at 24 hr.” value was “++ (++ indicates between about 1%- 20% labelling)”.
